Several values for one entry are separate records, joined by “and”; a condition that tells them apart may be missing. Equal entries are not always repeated. Where two headings read alike, the source gives them in different places.
What was measured:
[1] = test system: STING signaling (IRF and NFKB-pathway activation) in THP1 Dual Cells; assay: THP-1 assay (THP1 Dual reporter cells, IRF / NFkB pathway activation); assay type: cell-based; details: for EC50: Homo sapiens, THP1 Dual cells
Experimental: THP1 Dual Cells™, were purchased from Invivogen (Cat. thpd-nfis), and used to determine the biological activity of the compounds on a molecular level and to determine downstream activation of STING signaling (IRF and NFKB-pathway activation). Briefly, cultured cells were seeded on the day of the experiment with a density of 1×10^5 cells per well (96-well format in RPMI supplemented with 25 mM HEPES, 10% heat inactivated FCS,). A serial dilution of the compounds was prepared and added to the cells for a total incubation time of 24 hours. The test items were tested in 8 concentrations to determine a dose-dependent activation of the NFKB and the IRF pathway. After 24 h cells were centrifuged and supernatants harvested for the detection of secreted alkaline phosphatase (measured by QUANTI-Blue™ detection solution; Cat. rep-qbs Invivogen) or lucia luciferase (measured by QUANTI-Luc™ reagent; Cat. rep-qlc1, Invivogen), respectively. The read outs were be performed according to the manufacturer's instructions. EC50 values were calculated using GraphPad Prism 9.

[2] = test system: HEK293 cells with a knocked-in STING receptor (IRF and IFNβ-pathway activation); assay: HEK STING assay with and without PFO (membrane permeabilization); assay type: cell-based; details: for EC50: Homo sapiens
[3] = Solubility in PBS and HEPES buffer; assay type: physicochemical; details: for solubility: aqueous buffer
Description: The primary differences are that Compound XX is less hydrophobic as a result of the introduction of oxazolyl heterocyclic ring in place of the pyrazolyl heterocyclic ring of Compound XV and as a result of the introduction of an imidazopyridine ring in place of the benzimidazole ring of Compound XV.

[4] = test system: PBMCs from healthy donors; assay: PBMC assay, dose-dependent cytokine induction; assay type: cell-based; details: Homo sapiens, 24 h
Experimental: Compounds I-A to IV were additionally tested on PBMCs from healthy donors to determine the dose-dependent cytokine induction. PBMCs from buffy coats were thawed on the day of the experiment and seeded with a density of 5×10^5 cells per well (96-well format, RPMI with 5% Human Serum+1% MEM Non-Essential Amino Acids+1% Sodium Pyruvate). In line with the experiment above, a serial dilution of the compounds was prepared and added to the cells for 24 hours. On the next days, cells were centrifuged and supernatants harvested for a cytokine readout based on a multiplex assay kit from mesoscale discovery (customized multiplex panel for the cytokines: IFNα2a, IFNβ, TNFα and IL6). Impact on cell viability was determined by CellTiter Glo2.0 from promega (Cat. G9241). Both experimental read outs were performed according to the manufacturer's instructions.

[5] = IRF pathway, read-out: THP-1 IRF EC50
[6] = NFkB pathway, read-out: THP-1 NFkB EC50
[7] = HEK293, read-out: HEK STING EC50 no PFO [nM]
[8] = HEK293, read-out: HEK STING EC50 with PFO [nM]
[9] = HEPES Buffer pH 7.0, read-out: Solubility HEPES Buffer pH 7.0
[10] = IFNα in supernatant, read-out: PBMC EC50 (μM) for IFNα
[11] = IFNβ in supernatant, read-out: PBMC EC50 (μM) for IFNβ
[12] = 24 h incubation, IRF pathway, read-out: THP-1 EC50 (IRF)

With `CCn1nc(C)cc1C(=O)Nc1nc2cc(CO)cc(OC)c2n1C/C=C/Cn1c(NC(=O)c2cc(C)nn2CC)nc2cc(C(N)=O)cc(OCCCN3CCOCC3)c21` [Compound XL, (E)-2-(1-ethyl-3-methyl-1H-pyrazole-5-carboxamido)-1-(4-(2-(1-ethyl-3-methyl-1H-pyrazole-5-carboxamido)-5-(hydroxymethyl)-7-methoxy-1H-benzo[d]imidazol-1-yl)but-2-en-1-yl)-7-(3-morpholinopropoxy)-1H-benzo[d]imidazole-5-carboxamide] the “THP-1 IRF MEC” value ([1]; Activity w/o permeabilization) was 78 nM, the “THP-1 NFkB MEC” value ([1]; Activity w/o permeabilization) was 78 nM and the EC50 [1, 5] was 221 nM. For the same compound, the EC50 [1, 6] was 149 nM, the “HEK IFNβ MEC” value ([2]; Activity w/o permeabilization) was 0.8 nM and the “HEK IFNβ MEC” value ([2]; Activity with permeabilization) was 4.0 nM. For the same compound, the EC50 ([2]; HEK293, Activity w/o permeabilization, read-out: HEK IRF EC50) was 0.53 nM, the EC50 ([2]; HEK293, Activity with permeabilization, read-out: HEK IRF EC50) was 1.11 nM and the EC50 [2, 7] was 2.7 nM. The EC50 [2, 8] was 2.7 nM.

`CCn1nc(C)cc1C(=O)Nc1nc2cc(CN)cc(OC)c2n1C/C=C/Cn1c(NC(=O)c2cc(C)nn2CC)nc2cc(C(N)=O)cc(OCCCN3CCOCC3)c21` [Compound XLI, 1-[(2E)-4-[5-(Aminomethyl)-2-(1-ethyl-3-methyl-1H-pyrazole-5-amido)-7-methoxy-1H-1,3-benzodiazol-1-yl]but-2-en-1-yl]-2-(1-ethyl-3-methyl-1H-pyrazole-5-amido)-7-[3-(morpholin-4-yl)propoxy]-1H-1,3-benzodiazole-5-carboxamide] showed an EC50 [1, 5] of 811 nM, an EC50 [1, 6] of 364 nM and an EC50 [2, 7] of 38 nM. The EC50 [2, 8] was 25 nM.

With `CCc1nc(C)oc1C(=O)Nc1nc2cc(CO)cc(OC)c2n1C/C=C/Cn1c(NC(=O)c2oc(C)nc2CC)nc2cc(C(N)=O)cc(OCCCN3CCOCC3)c21` [Compound XLII, (E)-N-(5-carbamoyl-1-(4-(2-(4-ethyl-2-methyloxazole-5-carboxamido)-5-(hydroxymethyl)-7-methoxy-1H-benzo[d]imidazol-1-yl)but-2-en-1-yl)-7-(3-morpholinopropoxy)-1H-benzo[d]imidazol-2-yl)-4-ethyl-2-methyloxazole-5-carboxamide] the EC50 [1, 5] was 333 nM, the EC50 [1, 6] was 290 nM and the EC50 [2, 7] was 26 nM. The EC50 [2, 8] was 14 nM.

For `CCn1nc(C)cc1C(=O)Nc1nc2cc(C(N)=O)cc(OC)c2n1C/C=C/Cn1c(NC(=O)c2cc(C)nn2CC)nc2cc(C(N)=O)cc(OCCCN(C)N)c21` [Compound XV], the “Solubility PBS Buffer pH 7.4” value ([3]; PBS Buffer pH 7.4) was “<LOQ”, the “Solubility PBS Buffer pH 7.4” value ([3]; PBS Buffer pH 7.4, lower limit of quantitation 1 μM) was “<LOQ^#” and the solubility [3, 9] was 5.9 µM and 5 µg/mL.

In the case of `CCc1nc(C)oc1C(=O)Nc1nc2cc(C(N)=O)cnc2n1C/C=C/Cn1c(NC(=O)c2oc(C)nc2CC)nc2cc(C(N)=O)cc(OCCCN(C)N)c21` [Compound XX], the “Solubility versus Compound XV” value ([3]; Compound XX compared with Compound XV) is reported as “slightly better solubility”, the solubility [3, 9] is reported as 11.5 µM and 10 µg/mL and the solubility ([3]; PBS Buffer pH 7.4, lower limit of quantitation 1 μM, read-out: Solubility PBS Buffer pH 7.4) is reported as 3.6 µM. For the same compound, the solubility ([3]; PBS Buffer pH 7.4, read-out: Solubility PBS Buffer pH 7.4) was 3 µg/mL.

In the case of `CCn1nc(C)cc1C(=O)Nc1nc2cc(C(N)=O)cc(OC)c2n1C/C=C/Cn1c(NC(=O)c2cc(C)nn2CC)nc2cc(C(N)=O)cc(OCCCC(=O)NN)c21` [I-A], the EC50 [4, 10] is reported as 0.334 µM and the EC50 [4, 11] is reported as 1.25 µM.

`CCn1nc(C)cc1C(=O)Nc1nc2cc(C(N)=O)cc(OC)c2n1C/C=C/Cn1c(NC(=O)c2cc(C)nn2CC)nc2cc(C(N)=O)cc(OCCCC(=O)N(C)N)c21` [I-B] showed an EC50 [4, 11] of 0.403 µM.

`CCn1nc(C)cc1C(=O)Nc1nc2cc(C(N)=O)cc(OC)c2n1C/C=C/Cn1c(NC(=O)c2cc(C)nn2CC)nc2cc(C(N)=O)cc(OCCCC(=O)NNC)c21` [I-C] gave an EC50 [4, 11] of 1.1 µM.

Work on `CCn1nc(C)cc1C(=O)Nc1nc2cc(C(N)=O)cc(OC)c2n1C/C=C/Cn1c(NC(=O)c2cc(C)nn2CC)nc2cc(C(N)=O)cc(OCCCC(=O)N(N)Cc3ccc(N)cc3)c21` [I-E] yielded an EC50 [4, 10] of 0.762 µM and an EC50 [4, 11] of 0.139 µM.

`CCn1nc(C)cc1C(=O)Nc1nc2cc(C(N)=O)cc(OC)c2n1C/C=C/Cn1c(NC(=O)c2cc(C)nn2CC)nc2cc(C(N)=O)cc(OCCCC(=O)NNCc3ccc(N)cc3)c21` [I-F] showed an EC50 [4, 11] of 0.209 µM.

With `CCn1nc(C)cc1C(=O)Nc1nc2cc(C(N)=O)cc(OC)c2n1C/C=C/Cn1c(NC(=O)c2cc(C)nn2CC)nc2cc(C(N)=O)cc(OCCCC(=O)NO)c21` [I-G] the EC50 [4, 10] was 2.02 µM and the EC50 [4, 11] was 0.311 µM.

For `CCn1nc(C)cc1C(=O)Nc1nc2cc(C(N)=O)cc(OC)c2n1C/C=C/Cn1c(NC(=O)c2cc(C)nn2CC)nc2cc(C(N)=O)cc(OCCCC(=O)N(C)O)c21` [I-H], the EC50 [4, 10] was 0.665 µM and the EC50 [4, 11] was 0.249 µM.

With `CCn1nc(C)cc1C(=O)Nc1nc2cc(C(N)=O)cc(OC)c2n1C/C=C/Cn1c(NC(=O)c2cc(C)nn2CC)nc2cc(C(N)=O)cc(OCCCC(=O)N(C)OC)c21` [I-I] the EC50 [4, 10] was 0.41 µM and the EC50 [4, 11] was 0.212 µM.

With `CCn1nc(C)cc1C(=O)Nc1nc2cc(C(N)=O)cc(OC)c2n1C/C=C/Cn1c(NC(=O)c2cc(C)nn2CC)nc2cc(C(N)=O)cc(OCCCC(=O)N(N)CCN)c21` [I-J] the EC50 [1, 12] was 23.4 nM, the EC50 [4, 10] was 0.321 µM and the EC50 [4, 11] was 0.293 µM.

In the case of `CCn1nc(C)cc1C(=O)Nc1nc2cc(C(N)=O)cc(OC)c2n1C/C=C/Cn1c(NC(=O)c2cc(C)nn2CC)nc2cc(C(N)=O)cc(OCCCC(=O)N3CCN(N)CC3)c21` [I-K], the EC50 [1, 12] is reported as 9.74 nM, the EC50 [4, 10] is reported as 0.302 µM and the EC50 [4, 11] is reported as 0.234 µM.

In the case of `CCn1nc(C)cc1C(=O)Nc1nc2cc(C(=O)NN)cc(OC)c2n1C/C=C/Cn1c(NC(=O)c2cc(C)nn2CC)nc2cc(C(N)=O)cc(OCCCN3CCOCC3)c21` [II-A], the EC50 [1, 12] is reported as 84.9 nM, the EC50 [4, 10] is reported as 0.875 µM and the EC50 [4, 11] is reported as 0.403 µM.

In the case of `CCn1nc(C)cc1C(=O)Nc1nc2cc(C(=O)N(C)N)cc(OC)c2n1C/C=C/Cn1c(NC(=O)c2cc(C)nn2CC)nc2cc(C(N)=O)cc(OCCCN3CCOCC3)c21` [II-C], the EC50 [1, 12] is reported as 267 nM, the EC50 [4, 10] is reported as 1.15 µM and the EC50 [4, 11] is reported as 0.91 µM.

`CCn1nc(C)cc1C(=O)Nc1nc2cc(C(N)=O)cc(OC)c2n1C/C=C/Cn1c(NC(=O)c2cc(C)nn2CC)nc2cc(C(N)=O)cc(OCCCN3CCOCC3)c21` [diABZI, reference compound] gave an EC50 [1, 5] of 16 nM, an EC50 [1, 6] of 14 nM and an EC50 [2, 7] of 1.6 nM. The EC50 [2, 8] was 1.2 nM.

Source: US20260242366A1, “STING AGONISTS CONTAINING HYDRAZIDE, HYDRAZINE, AND HYDROXAMIC ACID FUNCTIONAL GROUPS” (BioNTech SE, priority 2023, published 2026)
